This is an account of results in patent US8846698B2, “Pyrrolo[2,3-d]pyrimidine tropomysin-related kinase inhibitors” (Pfizer Limited, priority 2011, dated 2014).

For orientation: IC50 means the concentration that inhibits the measured activity by half.

The target in this test is TRKA (Homo sapiens (Human), UniProt P04629). Description: Isolated TRK enzyme assay (HTRF KinEASE-TK), TRKA. The format is biochemical. As to conditions: read-out: Trka enzyme (IC50). (Time-resolved FRET reads energy transfer from a long-lived donor to a nearby acceptor.)
TRKA, sequence (P04629 441-796): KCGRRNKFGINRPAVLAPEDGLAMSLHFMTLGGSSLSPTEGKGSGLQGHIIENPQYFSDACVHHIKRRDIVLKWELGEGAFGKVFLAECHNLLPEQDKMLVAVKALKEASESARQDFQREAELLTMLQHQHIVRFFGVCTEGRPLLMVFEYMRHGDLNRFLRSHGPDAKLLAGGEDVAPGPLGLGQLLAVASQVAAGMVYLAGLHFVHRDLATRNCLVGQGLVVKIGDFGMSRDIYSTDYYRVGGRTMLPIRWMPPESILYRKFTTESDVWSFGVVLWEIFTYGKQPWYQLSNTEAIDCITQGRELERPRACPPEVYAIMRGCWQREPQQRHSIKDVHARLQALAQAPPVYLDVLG
`CC(C(=O)N(C)C)n1cc(C(=O)c2cncc(NC(=O)Cc3ccc(Cl)cc3)c2)c2cncnc21` (racemic) [Example 230, 2-{5-[(5-{[(4-Chlorophenyl)acetyl]amino}pyridin-3-yl)carbonyl]-7H-pyrrolo[2,3-d]pyrimidin-7-yl}-N,N-dimethylpropanamide]: the IC50 is 63.7 nM.
Regarding `CC(CO)n1cc(C(=O)c2cncc(NC(=O)Cc3ccc4cccnc4c3)c2)c2cnc(N)nc21` (single isomer, unassigned) [Example 211, N-(5-{[2-amino-7-(2-hydroxy-1-methylethyl)-7H-pyrrolo[2,3-d]pyrimidin-5-yl]carbonyl}pyridin-3-yl)-2-quinolin-7-ylacetamide], the IC50 was 34.9 nM.
The result for `CC(CO)n1cc(C(=O)c2cncc(NC(=O)Cc3ccc(C#N)cc3)c2)c2cnc(N)nc21` (single isomer, unassigned) [Example 212, N-(5-{[2-amino-7-(2-hydroxy-1-methylethyl)-7H-pyrrolo[2,3-d]pyrimidin-5-yl]carbonyl}pyridin-3-yl)-2-(4-cyanophenyl)acetamide] reads 59 nM; that for `CC(CO)n1cc(C(=O)c2cncc(NC(=O)Cc3cccc(C(F)(F)F)c3)c2)c2cnc(N)nc21` (single isomer, unassigned) [Example 213, N-(5-{[2-amino-7-(2-hydroxy-1-methylethyl)-7H-pyrrolo[2,3-d]pyrimidin-5-yl]carbonyl}pyridin-3-yl)-2-[3-(trifluoromethyl)phenyl]acetamide], 3.03 nM.
For `CC(CO)n1cc(C(=O)c2cncc(NC(=O)Cc3ccc(C#N)cc3)c2)c2cnc(N)nc21` (single isomer, unassigned) [Example 214, N-(5-{[2-amino-7-(2-hydroxy-1-methylethyl)-7H-pyrrolo[2,3-d]pyrimidin-5-yl]carbonyl}pyridin-3-yl)-2-(4-cyanophenyl)acetamide] the value was 65.9 nM; for `CC(CO)n1cc(C(=O)c2cncc(NC(=O)Cc3cccc(C(F)(F)F)c3)c2)c2cnc(N)nc21` (single isomer, unassigned) [Example 215, N-(5-{[2-amino-7-(2-hydroxy-1-methylethyl)-7H-pyrrolo[2,3-d]pyrimidin-5-yl]carbonyl}pyridin-3-yl)-2-[3-(trifluoromethyl)phenyl]acetamide], 4.4 nM; for `CC(CO)n1cc(C(=O)c2cncc(NC(=O)Cc3ccc4cccnc4c3)c2)c2cnc(N)nc21` (single isomer, unassigned) [Example 216, N-(5-{[2-amino-7-(2-hydroxy-1-methylethyl)-7H-pyrrolo[2,3-d]pyrimidin-5-yl]carbonyl}pyridin-3-yl)-2-quinolin-7-ylacetamide], 31.6 nM.
Consider `CC(C)n1cc(C(=O)c2cncc(NC(=O)Cc3ccc(F)cc3)c2)c2cncnc21` [Example 65, 2-(4-fluorophenyl)-N-{5-[(7-isopropyl-7H-pyrrolo[2,3-d]pyrimidin-5-yl)carbonyl]pyridin-3-yl}acetamide], for which the IC50 was found to be 55.6 nM.
The result for `CC(C)n1cc(C(=O)c2cncc(NC(=O)Cc3cccc(C(F)(F)F)c3)c2)c2cncnc21` [Example 66, N-{5-[(7-isopropyl-7H-pyrrolo[2,3-d]pyrimidin-5-yl)carbonyl]pyridin-3-yl}-2-[3-(trifluoromethyl)phenyl]acetamide] reads 3.55 nM.
Turning to `CC(C)n1cc(C(=O)c2cncc(NC(=O)Cc3ccc(C(F)(F)F)cc3)c2)c2cncnc21` [Example 67, N-{5-[(7-isopropyl-7H-pyrrolo[2,3-d]pyrimidin-5-yl)carbonyl]pyridin-3-yl}-2-[4-(trifluoromethyl)phenyl]acetamide], the half-inhibitory concentration (IC50) is 4.15 nM.
The result for `CC(C)n1cc(C(=O)c2cncc(NC(=O)Cc3ccc(Cl)c(Cl)c3)c2)c2cncnc21` [Example 68, 2-(3,4-dichlorophenyl)-N-{5-[(7-isopropyl-7H-pyrrolo[2,3-d]pyrimidin-5-yl)carbonyl]pyridin-3-yl}acetamide] reads 12.1 nM.
